These are literature values, as cited in article PMC8198792, “Prediction of Anticancer Peptides with High Efficacy and Low Toxicity by Hybrid Model Based on 3D Structure of Peptides” (International Journal of Molecular Sciences, 2021).

Like-named read-outs stand apart in the source and are kept apart here.

The test system of data set [1] is cancer cell lines. Further details: method as in 6 sources, ref CancerPPD [45] and SATPdb ||| ref CancerPPD/SATPdb ||| ref CancerPPD, SATPdb, Swissprot (PDB) ||| ref CancerPPD/SATPdb/Swissprot(PDB) ||| ref CancerPPD / SATPdb ||| ... The note with it: 0 = non-ACP, cited from earlier work. The source says:
Supplement ijms-22-05630-s001.zip/ACPs(seguence).xlsx, sheet "D1" | column: Activity || Supplement ijms-22-05630-s001.zip/ACPs(seguence).xlsx, sheet "D2" | column: Activity || Supplement ijms-22-05630-s001.zip/ACPs(seguence).xlsx, sheet "D3" | column: Activity || (+ 2 further places)

The test system of data set [2] is many types of cells, including non-cancer cells. The note with it: toxic peptides dataset TD2; class label 1 (toxic, positive set) or 0 (non-toxic AMP, negative set); ref SATPdb; cited from earlier work.
Setting [3] is: ACPs dataset D3 (sheet "D3"), label 1 = ACP, ref CancerPPD/SATPdb.
The mark [4] stands for this setting: ACPs dataset D4 (sheet "D4"), label 1 = ACP, ref CancerPPD / SATPdb.
Setting [5] is: ACPs dataset D5, sheet "D5", label 1 = ACP, ref CancerPPD [45] and SATPdb.
The mark [6] stands for this setting: ACPs dataset D3 (supplement sheet "D3"), 1 = ACP, ref CancerPPD [45] and SATPdb.

On to “RADTQTYQPYNKDWIKEKIYVLLRRQAQQAGK [satpdb14189]”, for which the Activity in data set [1] (setting [3]), in data set [1] (setting [4]), in data set [1] (setting [5]) and in data set [2] was 0 throughout.
As to “KFGKIVGKVLKQLKKVSAVAKVAMKKG [satpdb11425]”, the Activity in data set [1] (setting [6]) is given as 0; in data set [1] (setting [4]), 0; in data set [1] (setting [5]) it was 0; in data set [2] it was 1.
For the substance GFGSVLGKALKFGANLL [satpdb10971], the Activity in data set [1] (setting [6]), in data set [1] (setting [4]), in data set [1] (setting [5]) and in data set [2] was 0 in each case.
Turning to FLPFLKSILGKIL [satpdb13847], the Activity in data set [1] (setting [3]), in data set [1] (setting [4]), in data set [1] (setting [5]) and in data set [2] was 0 each time.
On to AILTTLANWARKFL [satpdb12672], for which the Activity in data set [1] (setting [3]), in data set [1] (setting [4]), in data set [1] (setting [5]) and in data set [2] was 0 in each case.
For the substance IWSAIWSGIKGLL [satpdb12218], the Activity in data set [1] (setting [3]), in data set [1] (setting [4]), in data set [1] (setting [5]) and in data set [2] was 0 each time.
FLPIAGKLLSGLSGLL [satpdb12964]: the Activity in data set [1] (setting [3]), in data set [1] (setting [4]), in data set [1] (setting [5]) and in data set [2] was 0 each time.
Consider GLLGTLGNLLNGLGL [satpdb12279], for which the Activity in data set [1] (setting [3]), in data set [1] (setting [4]), in data set [1] (setting [5]) and in data set [2] was 0 throughout.
In the case of VKLfPVKLfP [satpdb12197], the Activity was 0 in data set [1] (setting [3]), 0 in data set [1] (setting [4]), 0 in data set [1] (setting [5]) and 1 in data set [2].
For “GVWDWLKKTAKNVWNSDIVKQLKGKAINAAKNYVAEKIGATPS [satpdb11887]”, the Activity in data set [1] (setting [6]), in data set [1] (setting [4]), in data set [1] (setting [5]) and in data set [2] was 0 each time.
Turning to ILGAILPLVSGLLSNKL [satpdb12884], the Activity in data set [1] (setting [3]), in data set [1] (setting [4]), in data set [1] (setting [5]) and in data set [2] was 0 each time.
Take ILGPVIKTIGGVIGGLLKNL [satpdb10308]: the Activity was 0 in data set [1] (setting [6]), 0 in data set [1] (setting [4]), 0 in data set [1] (setting [5]) and 1 in data set [2].
Take GLLSGILNTAGGLLGNLIGSLSN [satpdb13955]: the Activity in data set [1] (setting [3]), in data set [1] (setting [4]), in data set [1] (setting [5]) and in data set [2] was 0 throughout.
With FFPIVGKLLFGLSGLL [satpdb12681], the Activity in data set [1] (setting [3]), in data set [1] (setting [4]), in data set [1] (setting [5]) and in data set [2] was 0 in each case.
For KLGFENFLVKALKTVMHVPTSPLL [satpdb10107], the Activity in data set [1] (setting [6]) is reported as 0; in data set [1] (setting [4]), 0; in data set [1] (setting [5]) it was 0; in data set [2], 1.
In the case of “AMWKDVLKKIGTVALHAGKAALGAVADTISQ [satpdb14434]”, the Activity in data set [1] (setting [3]), in data set [1] (setting [4]), in data set [1] (setting [5]) and in data set [2] was 0 each time.
LSPNLLKSLL [satpdb13883]: the Activity in data set [1] (setting [3]), in data set [1] (setting [4]), in data set [1] (setting [5]) and in data set [2] was 0 in each case.
For the substance WRSLGRTLLRLSHALKPLARRSGW [satpdb10596], the Activity in data set [1] (setting [6]), in data set [1] (setting [4]), in data set [1] (setting [5]) and in data set [2] was 0 each time.
Consider GRLQAFLAKMKEIAAQTL [satpdb13649], for which the Activity in data set [1] (setting [3]), in data set [1] (setting [4]), in data set [1] (setting [5]) and in data set [2] was 0 in each case.
Consider FLSLLPSLVSGAVSLVKIL [satpdb10512], for which the Activity in data set [1] (setting [6]), in data set [1] (setting [4]), in data set [1] (setting [5]) and in data set [2] was 0 in each case.
On to VOLFPVOLFP [satpdb12868], for which the Activity in data set [1] (setting [3]), in data set [1] (setting [4]), in data set [1] (setting [5]) and in data set [2] was 0 each time.
Take FLSLIPHAINAVSAIAKHS [satpdb10076]: the Activity in data set [1] (setting [6]), in data set [1] (setting [4]), in data set [1] (setting [5]) and in data set [2] was 0 each time.
In the case of GMASKAGSVLGKVAKVALKAAL [satpdb13618], the Activity in data set [1] (setting [3]), in data set [1] (setting [4]), in data set [1] (setting [5]) and in data set [2] was 0 throughout.
As to HFLGTLVNLAKKIL [satpdb13929], the Activity in data set [1] (setting [3]) is given as 0; in data set [1] (setting [4]), 0; in data set [1] (setting [5]), 0; in data set [2], 1.
As for “GLWSTIKQKGKEAAIAAAKAAGQAVLNSASEAL [satpdb11971]”, the Activity in data set [1] (setting [3]), in data set [1] (setting [4]), in data set [1] (setting [5]) and in data set [2] was 0 each time.
Turning to LRPAILVRIK [satpdb13588], the Activity in data set [1] (setting [3]), in data set [1] (setting [4]), in data set [1] (setting [5]) and in data set [2] was 0 throughout.
With RGGRLCYCRPRFCVCVGR [satpdb12800], the Activity in data set [1] (setting [3]), in data set [1] (setting [4]), in data set [1] (setting [5]) and in data set [2] was 0 in each case.
For the substance FIGAILPAIAGLVGGLINR [satpdb12061], the Activity in data set [1] (setting [3]) is 0; in data set [1] (setting [4]), 0; in data set [1] (setting [5]), 0; in data set [2], 1.
As to FLGLLPSIVSGAVSLVKKL [satpdb10320], the Activity in data set [1] (setting [6]), in data set [1] (setting [4]), in data set [1] (setting [5]) and in data set [2] was 0 throughout.
Take FLSLIPHAINAVSALANHG [satpdb14661]: the Activity in data set [1] (setting [3]), in data set [1] (setting [4]), in data set [1] (setting [5]) and in data set [2] was 0 throughout.
Take “FKIKPGKVLDKFGKIVGKVLKQLKKVS [satpdb13509]”: the Activity in data set [1] (setting [3]) is given as 0; in data set [1] (setting [4]), 0; in data set [1] (setting [5]) it was 0; in data set [2], 1.
In the case of GLFSVLGSVAKHLLPHVAPIIAEKL [satpdb13391], the Activity in data set [1] (setting [3]), in data set [1] (setting [4]), in data set [1] (setting [5]) and in data set [2] was 0 each time.
Regarding FLPLVGKILSGLI [satpdb11230], the Activity in data set [1] (setting [6]), in data set [1] (setting [4]), in data set [1] (setting [5]) and in data set [2] was 0 in each case.
Regarding “KCNTATCATQRLANFLVHSSNNFGAILSSTNVGSNTY [satpdb11357]”, the Activity in data set [1] (setting [6]), in data set [1] (setting [4]), in data set [1] (setting [5]) and in data set [2] was 0 each time.
As to “VGKVLKQLKKVSAVAKVAMKKGAALLK [satpdb11069]”, the Activity was 0 in data set [1] (setting [6]), 0 in data set [1] (setting [4]), 0 in data set [1] (setting [5]) and 1 in data set [2].
In the case of FLPILINLIHKGLL [satpdb14138], the Activity in data set [1] (setting [3]), in data set [1] (setting [4]), in data set [1] (setting [5]) and in data set [2] was 0 throughout.
FLSTLWNAAKSIF [satpdb12345]: the Activity in data set [1] (setting [3]) is given as 0; in data set [1] (setting [4]) it was 0; in data set [1] (setting [5]), 0; in data set [2] it was 1.
As for “KWKVFKKIEKMGRNIRNGIVKAGPAIAVLGEAKAILS [satpdb11163]”, the Activity in data set [1] (setting [6]), in data set [1] (setting [4]), in data set [1] (setting [5]) and in data set [2] was 0 throughout.
For the substance “GKVLDKFGKIVGKVLKQLKKVSAVAKV [satpdb11239]”, the Activity is reported as 0 in data set [1] (setting [6]), 0 in data set [1] (setting [4]), 0 in data set [1] (setting [5]) and 1 in data set [2].
Turning to “RWKIFKKIEKVGRNVRDGIIKAGPAVAVVGQAATVVK [satpdb12319]”, the Activity in data set [1] (setting [3]), in data set [1] (setting [4]), in data set [1] (setting [5]) and in data set [2] was 0 in each case.
GFGSLLGKALRLGANVL [satpdb12093]: the Activity in data set [1] (setting [3]), in data set [1] (setting [4]), in data set [1] (setting [5]) and in data set [2] was 0 in each case.
Regarding AVLDILKDVGKGLLSHFMEKV [satpdb13844], the Activity in data set [1] (setting [3]), in data set [1] (setting [4]), in data set [1] (setting [5]) and in data set [2] was 0 in each case.
In the case of “KWKSFIKKLTSAAKKVVTTAKPLISS [satpdb10912]”, the Activity in data set [1] (setting [6]), in data set [1] (setting [4]), in data set [1] (setting [5]) and in data set [2] was 0 in each case.
